Columns and labels:
[1] = biological target: T1, Amine oxidase [flavin-containing] A (Homo sapiens, UniProt P21397); test: DRUGMATRIX: Monoamine Oxidase MAO-A enzyme inhibition (substrate: Kynuramine); set-up: species or system BTI-TN-5B1-4; conditions: Not Active = under 50% inhibition at 10 µM
T1 sequence (P21397 whole entry): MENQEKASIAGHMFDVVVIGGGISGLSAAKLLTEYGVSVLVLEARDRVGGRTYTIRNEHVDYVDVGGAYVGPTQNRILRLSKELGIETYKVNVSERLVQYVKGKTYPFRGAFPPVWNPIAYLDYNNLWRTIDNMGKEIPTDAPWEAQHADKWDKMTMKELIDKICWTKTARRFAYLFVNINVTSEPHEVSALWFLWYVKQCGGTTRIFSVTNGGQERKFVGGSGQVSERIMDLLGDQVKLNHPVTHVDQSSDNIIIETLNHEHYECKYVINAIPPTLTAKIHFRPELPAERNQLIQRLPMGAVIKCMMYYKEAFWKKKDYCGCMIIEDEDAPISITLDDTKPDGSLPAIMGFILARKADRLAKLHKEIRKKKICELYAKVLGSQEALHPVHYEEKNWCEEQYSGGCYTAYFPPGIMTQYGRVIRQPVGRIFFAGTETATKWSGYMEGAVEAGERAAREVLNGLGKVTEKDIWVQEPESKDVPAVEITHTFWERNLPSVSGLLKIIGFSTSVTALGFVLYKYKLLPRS

[2] = biological target: T2, D(4) dopamine receptor (Homo sapiens, UniProt P21917); test: DRUGMATRIX: Dopamine D4.2 radioligand binding (ligand: [3H] Spiperone); type: cell membranes, CHO-K1, Membrane; conditions: cho-k1; Not Active = under 50% inhibition at 10 µM
T2 sequence (P21917 whole entry): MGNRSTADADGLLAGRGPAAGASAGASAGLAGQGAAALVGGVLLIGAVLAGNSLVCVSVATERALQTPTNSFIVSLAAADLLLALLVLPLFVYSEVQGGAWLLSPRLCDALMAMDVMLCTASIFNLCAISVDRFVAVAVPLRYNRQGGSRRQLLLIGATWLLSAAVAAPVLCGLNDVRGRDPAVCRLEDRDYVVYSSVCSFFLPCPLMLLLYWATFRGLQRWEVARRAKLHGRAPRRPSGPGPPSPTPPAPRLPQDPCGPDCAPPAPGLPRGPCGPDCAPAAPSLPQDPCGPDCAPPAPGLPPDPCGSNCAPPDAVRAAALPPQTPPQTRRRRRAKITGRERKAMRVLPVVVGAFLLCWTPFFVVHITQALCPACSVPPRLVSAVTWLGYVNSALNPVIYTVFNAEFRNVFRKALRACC

[3] = biological target: T3, Leukotriene C4 synthase (Cavia porcellus, UniProt A6XA80); type: tissue-based, Lung;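 also: enzyme inhibition assay of leukotriene C4 synthase, using LTA4 as the substrate; in other assays of this panel Not Active means under 50% inhibition at 10 µM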
T3 sequence (A6XA80 whole entry): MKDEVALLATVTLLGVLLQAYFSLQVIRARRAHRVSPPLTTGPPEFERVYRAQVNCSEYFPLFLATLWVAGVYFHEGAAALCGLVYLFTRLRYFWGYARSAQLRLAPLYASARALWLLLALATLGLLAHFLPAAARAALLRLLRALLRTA

[4] = biological target: T4, Cysteinyl leukotriene receptor 1 (Homo sapiens, UniProt Q9Y271); type: cell membranes, Membrane; conditions: cho-k1; also: in other assays of this panel Not Active means under 50% inhibition at 10 µM
T4 sequence (Q9Y271 whole entry): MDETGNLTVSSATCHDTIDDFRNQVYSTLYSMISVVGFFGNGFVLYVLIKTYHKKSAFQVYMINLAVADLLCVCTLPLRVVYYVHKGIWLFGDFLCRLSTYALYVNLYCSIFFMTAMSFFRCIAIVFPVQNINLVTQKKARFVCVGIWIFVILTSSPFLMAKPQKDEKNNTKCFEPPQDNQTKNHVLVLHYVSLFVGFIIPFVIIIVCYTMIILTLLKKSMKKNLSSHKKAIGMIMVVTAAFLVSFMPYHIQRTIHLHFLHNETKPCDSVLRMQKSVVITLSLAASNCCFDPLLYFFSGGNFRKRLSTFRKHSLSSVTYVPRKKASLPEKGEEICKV

[5] = biological target: T5, Type-2 angiotensin II receptor (Homo sapiens, UniProt P50052); type: cell-based; conditions: cho-k1; also: in other assays of this panel Not Active means under 50% inhibition at 10 µM
T5 sequence (P50052 whole entry): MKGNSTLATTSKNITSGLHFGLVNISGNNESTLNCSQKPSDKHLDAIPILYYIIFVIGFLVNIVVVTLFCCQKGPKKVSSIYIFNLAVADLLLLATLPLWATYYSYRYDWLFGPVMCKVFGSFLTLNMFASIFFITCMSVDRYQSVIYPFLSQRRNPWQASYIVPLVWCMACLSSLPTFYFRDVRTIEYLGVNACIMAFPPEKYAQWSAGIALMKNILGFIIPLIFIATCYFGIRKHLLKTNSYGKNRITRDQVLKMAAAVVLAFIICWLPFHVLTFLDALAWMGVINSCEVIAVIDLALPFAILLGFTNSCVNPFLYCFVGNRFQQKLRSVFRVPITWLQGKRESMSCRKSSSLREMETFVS

[6] = DRUGMATRIX: GABAA, Flunitrazepam, Central radioligand binding (ligand: [3H] Flunitrazepam); type: cell membranes, Rattus norvegicus, Wistar, Brain, Membrane; conditions: Not Active = under 50% inhibition at 10 µM

Molecule | IC50 ([1]; bti-tn-5b1-4) | IC50 [2] | IC50 [3] | IC50 [4] | IC50 [5] | IC50 [6] | Ki [6] | IC50 ([1]; read-out: IC50) [nM] | Ki ([1]; bti-tn-5b1-4) | Ki [2] | Ki [3] | Ki [4] | Ki [5]
O=C(O)c1cn(-c2ccc(F)cc2)c2cc(N3CCNCC3)c(F)cc2c1=O [SARAFLOXACIN] | Not Active | Not Active | Not Active | Not Active | Not Active | Not Active | Not Active |  |  |  |  |  | 
CC(C)NCC(O)c1ccc(NS(C)(=O)=O)cc1 (centres undefined) [SOTALOL] | Not Active | Not Active | Not Active | Not Active | Not Active | Not Active | Not Active |  |  |  |  |  | 
O.O.O.O.O.O.[Cl-].[Cl-].[Sr+2] [STRONTIUM CHLORIDE HEXAHYDRATE] | Not Active | Not Active | Not Active | Not Active | Not Active | Not Active | Not Active |  |  |  |  |  | 
O=C1C(CC[S+]([O-])c2ccccc2)C(=O)N(c2ccccc2)N1c1ccccc1 (centres undefined) [SULFINPYRAZONE] | Not Active | Not Active | Not Active | Not Active | Not Active | Not Active | Not Active |  |  |  |  |  | 
NC(=O)N1C(=O)/C(=C(\O)c2cccs2)c2cc(Cl)ccc21 [TENIDAP] | Not Active | Not Active | Not Active | Not Active | Not Active | Not Active | Not Active |  |  |  |  |  | 
COc1cc2nc(N3CCN(C(=O)C4CCCO4)CC3)nc(N)c2cc1OC (centres undefined) [TERAZOSIN] | Not Active | Not Active | Not Active | Not Active | Not Active | Not Active | Not Active |  |  |  |  |  | 
CN(C/C=C/C#CC(C)(C)C)Cc1cccc2ccccc12 [TERBINAFINE] | Not Active | Not Active | Not Active | Not Active | Not Active | Not Active | Not Active |  |  |  |  |  | 
CCCCNc1ccc(C(=O)OCCN(C)C)cc1 [TETRACAINE] |  | Not Active | Not Active | Not Active | Not Active | Not Active | Not Active | 317 |  |  |  |  | 
Cn1c(=O)c2nc[nH]c2n(C)c1=O.O [THEOPHYLLINE] | Not Active | Not Active | Not Active | Not Active | Not Active | Not Active | Not Active |  |  |  |  |  | 
CS(=O)(=O)c1ccc([C@@H](O)[C@@H](CO)NC(=O)C(Cl)Cl)cc1 [THIAMPHENICOL] | Not Active | Not Active | Not Active | Not Active | Not Active | Not Active | Not Active |  |  |  |  |  | 
CCN(CC)CCNC(=O)c1cc(S(C)(=O)=O)ccc1OC [TIAPRIDE] | Not Active | Not Active | Not Active | Not Active | Not Active | Not Active | Not Active |  |  |  |  |  | 
Clc1ccccc1CN1CCc2sccc2C1 [TICLOPIDINE] | Not Active | Not Active | Not Active | Not Active | Not Active | Not Active | Not Active |  |  |  |  |  | 
NC1CCN(c2nc3c(cc2F)c(=O)c(C(=O)O)cn3-c2ccc(F)cc2F)C1 (centres undefined) [TOSUFLOXACIN] | Not Active | Not Active | Not Active | Not Active | Not Active | Not Active | Not Active |  |  |  |  |  | 
O=C(Nc1ccc(Br)cc1)c1cc(Br)cc(Br)c1O [TRIBROMSALAN] | Not Active | Not Active | Not Active | Not Active | Not Active | Not Active | Not Active |  |  |  |  |  | 
CC(c1cc2ccccc2s1)N(O)C(N)=O (centres undefined) [ZILEUTON] | Not Active | Not Active | Not Active | Not Active | Not Active | Not Active | Not Active |  |  |  |  |  | 
MANGANESE CHLORIDE ANHYDROUS | Not Active | Not Active | Not Active | Not Active | Not Active | Not Active | Not Active |  | Not Active | Not Active | Not Active | Not Active | Not Active
SODIUM ORTHOVANAD | Not Active | Not Active | Not Active | Not Active | Not Active | Not Active | Not Active |  | Not Active | Not Active | Not Active | Not Active | Not Active
